Measurements taken from patent US9512396B2, “In vitro microphysiological system for high throughput 3D tissue organization and biological function” (The Trustees of the University of Pennsylvania, priority 2011, dated 2016).
Where two headings read alike, the source gives them in different places.

System: cardiac microtissues (CMTs)
Assay type: cell-based
Conditions: measured after 1 h
Description: In a first example, cardiomyocytes were isolated from 0-1 day neonatal Sprague Dawley rat pups by a Trypsin digestion protocol as previously described. The resulting cell population was immediately subjected to CMT generation. CMTs were cultured in high glucose DMEM (Mediatech, Inc.) containing 10% horse serum (Invitrogen), 2% chick embryo extract (Charles River Laboratories International, Inc.), 4 mM L-glutamine, 1 mM sodium pyruvate, 100 units/mL penicillin, and […] streptomycin (all from Invitrogen). Cell culture medium was changed every day. Stock solution of Isoproterenol (Sigma-Aldrich) of 10 mM was made in MilliQ water and stock solution of Digoxin (GlaxoSmithKline) of 10 mM was made in DMSO. Calcium staining was obtained by incubating CMTs for 1 h with the acetoxymethyl ester of fluo-3 (fluo-3/(AM), Invitrogen) as a fluorescent dye at 2 μM in PBS with 0.02% of Pluronic F127 (BASF).
Before cell seeding, the PDMS templates were sterilized in 70% ethanol followed by UV irradiation for 15 min and treated with 0.2% Pluronic F127 for 60 min to reduce cell adhesion. A reconstitution mixture, consisting of 1 mg/mL or 2.5 mg/mL liquid neutralized collagen I from rat tail (BO Biosciences) and 0.5 mg/mL fibrinogen from bovine plasma (Sigma-Aldrich), was then added to the surface of the substrates on ice and templates were degassed under vacuum to remove bubbles in the liquid. A cooled suspension of half a million cells within reconstitution mixture was then added to the substrate and the entire assembly was centrifuged to drive the cells into the micropatterned wells, resulting in around 500 cells per well. Excess collagen/fibrinogen and cells were removed by de-wetting the surface of the substrate before incubating at 37° C. to induce collagen polymerization. The appropriate media was then added to each substrate. By using a live/dead cell viability assay (Invitrogen), cell viability over time was estimated.
For quantifying microtissue forces, brightfield and fluorescence images were taken at 20 Hz within each template, using a Photometrics Evolve EMCCOcamera (Photometrics), and an A-Plan 10× objective on a Nikon Eclipse Ti (Nikon Instruments Inc.) equipped with a live cell incubator. Only tissues that were uniformly anchored to the tips of the cantilevers were included in the analysis. The displacement of fluorescent micro-beads at the top of the cantilevers was then tracked with using the SpotTracker plug-in in ImageJ (National Institutes of Health).
In one example, it was also examined whether CMTs responded appropriately to two cardiac compounds, isoproterenol and digoxin. To study the dose-response of the CMTs to these compounds, their concentrations were varied from 1 nM to 10 μM and the dynamic stress and the spontaneous frequency of CMTs were measured after 1 h (FIG. 13). Isoproterenol can be used as a β-adrenergic agonist with a positive chronotropic effect whereas digoxin is a cardiac glycoside that inhibits Na+/K+-ATPase (sodium pump), activates sarcoplasmic reticulum Ca2+-release channels and induces positive inotropic effects.

Q: `CC(C)NCC(O)c1ccc(O)c(O)c1` (centres unmarked) [Isoproterenol] was tested. Which “effect on dynamic stress and spontaneous frequency of CMTs” value (1 nM) did it give?
A: no observable effect

Q: What about the “change of spontaneous frequency” value (1 μM) of the same molecule?
A: doubling

Q: And the “change of spontaneous frequency” value (10 μM)?
A: tripling

Q: And the “inotropic effect (contractility, dynamic stress)” value (1 and 10 nM (so in the source))?
A: slight negative inotropic effect

Q: And the “chronotropic action (spontaneous frequency)” value (1 and 10 μM)?
A: positive chronotropic action

Q: And the “inotropic action (contractility, dynamic stress)” value (10 and 100 nM)?
A: slight positive inotropic action

Q: Which maximal stress increase (1 μM) does the source give for `C[C@H]1O[C@@H](O[C@H]2[C@@H](O)C[C@H](O[C@H]3[C@@H](O)C[C@H](O[C@H]4CC[C@@]5(C)[C@H](CC[C@@H]6[C@@H]5C[C@@H](O)[C@]5(C)[C@@H](C7=CC(=O)OC7)CC[C@]65O)C4)O[C@@H]3C)O[C@@H]2C)C[C@H](O)[C@@H]1O` [Digoxin] here?
A: 22±4%

Q: And the “chronotropic effect (spontaneous frequency)” value (10 μM)?
A: strong negative chronotropic effect

Q: What about the “inotropic effect (dynamic stress)” value (10 μM) of the same molecule?
A: almost no inotropic effect

Q: What about the spontaneous frequency (10 μM) of the same molecule?
A: under 0.04±0.01 Hz

Q: What about the “inotropic response (dynamic stress)” value (between 1 nM and 1 μM) of the same molecule?
A: positive inotropic response
